Positions count from the first letter of the chain named.
Columns and labels:
[1] = target: T1, Angiotensin II receptor (AT-1) type-1 (Rattus norvegicus, UniProt P29089+P25095); test: Binding affinity against AT1 receptor in rat adrenal tissue; format: tissue-based
T1 sequence (P29089 whole entry): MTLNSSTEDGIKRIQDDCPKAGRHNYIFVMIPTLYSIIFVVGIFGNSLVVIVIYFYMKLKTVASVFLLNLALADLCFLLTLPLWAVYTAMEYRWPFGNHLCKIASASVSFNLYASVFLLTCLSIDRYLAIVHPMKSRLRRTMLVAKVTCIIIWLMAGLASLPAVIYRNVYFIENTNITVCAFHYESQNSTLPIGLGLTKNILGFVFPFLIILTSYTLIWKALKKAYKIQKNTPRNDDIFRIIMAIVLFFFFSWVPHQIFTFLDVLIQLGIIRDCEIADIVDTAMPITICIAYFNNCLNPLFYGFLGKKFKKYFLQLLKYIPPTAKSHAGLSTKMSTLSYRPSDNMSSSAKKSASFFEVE
T1 sequence (P25095 whole entry): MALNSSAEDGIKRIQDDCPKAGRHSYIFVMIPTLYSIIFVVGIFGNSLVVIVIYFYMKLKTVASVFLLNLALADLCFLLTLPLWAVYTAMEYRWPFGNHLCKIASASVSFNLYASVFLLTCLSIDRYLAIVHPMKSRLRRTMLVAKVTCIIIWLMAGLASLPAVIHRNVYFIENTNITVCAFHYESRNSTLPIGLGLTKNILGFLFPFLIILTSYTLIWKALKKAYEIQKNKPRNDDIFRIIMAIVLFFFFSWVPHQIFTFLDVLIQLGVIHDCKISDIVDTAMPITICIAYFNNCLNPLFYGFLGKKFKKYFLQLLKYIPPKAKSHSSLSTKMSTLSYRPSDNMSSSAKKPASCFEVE

[2] = target: T2, Angiotensin II receptor (Homo sapiens) (UniProt P30556+P50052); test: Ratio of receptor binding affinity AT2/AT1 in human adrenal tissue in the presence of 2 mg/ml bovine serum albumin; format: protein assay
T2 sequence (P50052 whole entry, looked up, one chain of several): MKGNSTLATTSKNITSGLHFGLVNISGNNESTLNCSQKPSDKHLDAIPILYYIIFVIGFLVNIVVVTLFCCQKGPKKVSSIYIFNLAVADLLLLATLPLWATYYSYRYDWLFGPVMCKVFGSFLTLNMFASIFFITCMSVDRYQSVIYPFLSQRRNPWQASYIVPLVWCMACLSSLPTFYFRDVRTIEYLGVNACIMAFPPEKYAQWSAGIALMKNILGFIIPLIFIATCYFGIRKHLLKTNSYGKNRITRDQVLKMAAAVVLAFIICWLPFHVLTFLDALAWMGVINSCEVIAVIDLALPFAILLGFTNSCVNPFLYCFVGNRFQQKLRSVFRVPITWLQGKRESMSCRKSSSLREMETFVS

[3] = target: Angiotensin II receptor (Rattus norvegicus) (UniProt P29089+P25095+P35351); test: Ratio of receptor binding affinity AT2/AT1 in rat adrenal tissue
[4] = Ratio of receptor binding affinity of compound against rat midbrain tissue (AT2) to that of rabbit aorta (AT1); format: tissue-based
Rattus norvegicus [5] = species on record: Rattus norvegicus; conditions: dose 1 mg/kg; route intravenous
Rattus norvegicus [6] = species on record: Rattus norvegicus; conditions: dose 1 mg/kg; route oral
physchem = conditions: octanol/water
Description: Partition coefficient (logP)

[7] = target: T3, Type-1 angiotensin II receptor (Homo sapiens, UniProt P30556); test: biochemical
T3 sequence (P30556 whole entry): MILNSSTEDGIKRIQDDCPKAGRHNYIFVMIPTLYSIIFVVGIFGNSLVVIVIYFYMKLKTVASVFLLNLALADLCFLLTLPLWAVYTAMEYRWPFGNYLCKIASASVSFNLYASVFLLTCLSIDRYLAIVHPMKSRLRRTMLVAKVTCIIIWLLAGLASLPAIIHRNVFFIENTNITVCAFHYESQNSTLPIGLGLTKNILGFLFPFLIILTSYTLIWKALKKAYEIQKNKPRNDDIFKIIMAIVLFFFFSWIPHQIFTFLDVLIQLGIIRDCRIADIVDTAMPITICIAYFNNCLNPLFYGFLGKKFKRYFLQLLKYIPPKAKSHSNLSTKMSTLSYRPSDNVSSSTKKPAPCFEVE
Description: Binding affinity against AT1 receptor in human adrenal tissue

[8] = target: T4, Type-1 angiotensin II receptor (Oryctolagus cuniculus, UniProt P34976); test: biochemical
T4 sequence (P34976 whole entry): T3 sequence (P30556 whole entry) with I2M, V49A, I254V, I270V, R272H, R311K, T349S, A353V
Description: Binding affinity against AT1 receptor in rabbit aorta

[9] = Bioavailability in dog (dose 3.0 mg/kg p.o.); format: ADME, organism-based, Canis lupus familiaris; conditions: in vivo, po
[10] = target: T2, Angiotensin II receptor (Homo sapiens); test: Ratio of receptor binding affinity AT2/AT1 in human adrenal tissue in th+e presence of 2 mg/ml bovine serum albumin; format: protein assay
[11] = Bioavailability in dog (dose of 1.0 mg/kg i.v.) 0.5 hr; format: ADME, organism-based, Canis lupus familiaris; conditions: in vivo, iv

Structure (SMILES): CCCCN(C(=O)c1ccc(OP(=O)([O-])[O-])cc1)c1ccc2ncn(Cc3ccc(-c4ccccc4-c4nnnn4C)cc3)c(=O)c2c1.[Na+].[Na+]
- IC50 [1]: 3.9 nM
- Ratio [2]: 10.9
- Ratio [3]: 5.4
- Ratio [4]: 1.9
- Duration (Rattus norvegicus [5]): >3 h
- Duration (Rattus norvegicus [6]): <3 h
- logP (physchem): 2.9
- IC50 [7]: 21.4 nM
- IC50 [8]: 2.2 nM

Structure (SMILES): Cn1nnnc1-c1ccccc1-c1ccc(Cn2cnc3ccc(N(Cc4cccnc4)C(=O)c4ccccc4)cc3c2=O)cc1
- bioavailability [9]: 56%
- IC50 [1]: 0.3 nM
- Ratio [10]: 1.3
- Ratio [3]: 2.1
- bioavailability [11]: 84%
- Duration (Rattus norvegicus [5]): >3 h
- Duration (Rattus norvegicus [6]): >3 h
- logP (physchem): 3.4
- IC50 [7]: 0.9 nM
- IC50 [8]: 1.7 nM
